This note sets out measurements from patent US10647732B2, “N-annulated perylene diimide dimers with active pyrrolic N—H bonds” (UTI Limited Partnership, priority 2018, dated 2020).

Values after ≈ are worked out from the molar mass of the structure shown. A value given as a limit tells only on which side of the number the result lay.

The nature of one series: physchem. The settings on record: organic solvent or mixture.
The nature of series [1]: Thermal stability by TGA and DSC. The format is physicochemical. The procedure: Decomposition occurred above 390° C. as determined by thermal gravimetric analysis (TGA, FIG. 4A) and no phase transitions were observed up to 350° C. as determined by differential scanning calorimetry (DSC) (see FIG. 5A). This stability is similar to that of compound 5. TGA of compound 4 is illustrated in FIG. 4B. The TGA were run under N2 at 2° C. per min.
The impact of thermal annealing on the thin-film optical absorption profile is an important factor for use of such dimers. The BOC functionalized derivative 4 was synthesized at least in part to enable facile solution processing of the PDI dimer and generation of 3 in the solid film through thermal deprotection after film formation. FIGS. 5A-5C are DSC plots for compounds 3, 4 and 5, respectively, run under N2 at 10° C. per min. For clarity, the second and third trials of each cooling run and the third trial of each heating run is omitted for all species because the data is indistinguishable from previous runs. During the first heating trial of compound 4, an endothermic peak is clearly present in the plot with an onset occurring at 160° C. This was assumed to be the temperature where cleavage of the protecting group begins to occur and this is confirmed by the fact that this feature is not present in the second heating trial, which has a profile strongly resembling that of the heated NH Dimer 3 and further confirmed by bulk deprotection of compound 4 in an oven at 180° C. The first heating trial of compound 3 features a smooth, downward sloping line. […] This feature is due to a cold-crystallization and has previously been observed in similar molecules.
Thus, films were thermally annealed above this temperature (e.g., at 200° C.) to ensure the BOC protecting group was removed. Films of all three compounds 3-5 were studied.

Series [2] in a line: Cyclic voltammetry in dichloromethane solution. It counts as physicochemical. The procedure: The electron affinity, 3.8 eV, and ionization potential, 5.8 eV, were determined from the onset of reduction (ca. −1.0V) and oxidation (ca. 1.0V), respectively, using a conversion value of 4.8. These values are similar to those of previously reported PDI dimers and indicate that compound 3 is suitable for use as an electron acceptor and transporting material in organic electronic devices. An analogous normalized CV plot of compound 4 is provided in FIG. 2B, where no oxidation is observed due to the electron withdrawing nature of the BOC group.
Cyclic Voltammetry (CV): All electrochemical measurements were performed using a CH Instruments potentiostat in a standard three-electrode configuration equipped with a silver wire pseudo-reference, platinum wire counter electrode and glassy carbon working electrode. The cyclic voltammetry experiments were performed in an anhydrous solution of dichloromethane (CH2Cl2) with ˜0.1 M tetrabutylammonium-hexafluorophosphate (TBAPF6) supporting electrolyte. Samples were scanned at a rate of 100 mV/s following a dry N2 purge to deoxygenate the solution, unless otherwise noted. Solution CV measurements were carried out with a sample concentration of ˜0.5 mg/mL in CH2Cl2, unless otherwise noted. Estimations of the energy levels were obtained by correlating the onset (Eox Fc/Fc+, Ered Fc/Fc+) to the normal hydrogen electrode (NHE), assuming a HOMO energy level of 4.80 eV for Fc/Fc+: E(HOMO)=−(Eox+4.80), E(LUMO)=−(Ered+4.80) UV-Visible Spectroscopy (UV/vis): All absorption measurements were recorded using an Agilent Technologies Cary 60 UV-vis spectrometer at room temperature. All solution UV/vis experiments were run in chloroform (CHCl3) using 2 mm quartz cuvettes and diluted 1% wt/v solutions, unless otherwise noted. Thin-films were prepared by spin-coating 1% wt/v solutions from CHCl3 onto Corning glass micro slides, unless otherwise noted. Prior to use, glass slides were cleaned with soap and water, acetone and isopropanol, and followed by UV/ozone treatment using a Novascan UV/ozone cleaning system.

Series [3] can be described thus: Solubility in organic solvents. The settings on record: organic solvent or mixture.

In general, solubility refers to the concentration that dissolves in the medium under given conditions. On to `CCC(CC)n1c(=O)c2ccc3c4c(-c5cc6c(=O)n(C(CC)CC)c(=O)c7cc8[nH]c9cc%10c(=O)n(C(CC)CC)c(=O)c%11ccc%12c5c(c67)c8c9c%12c%11%10)cc5c(=O)n(C(CC)CC)c(=O)c6cc7[nH]c8cc(c1=O)c2c3c8c7c4c56` [Compound 3, tPDI2N—H], for which the solubility in the series “physchem” is about 5000 µg/mL (≈ 4.61 mM). For the same molecule, the decomposition temperature entry in series [1] (TGA under N2 at 2° C. per min) was “above 390 °C”. Moreover, the “oxidation waves E1/2” value in series [2] (dichloromethane solution, hexafluorophosphate electrolyte) is recorded as 1.1 V vs. Fc/Fc+. This molecule came in with an ionization potential in series [2] (from onset of oxidation (ca. 1.0V), conversion value of 4.8) of 5.8 eV. Also, the electron affinity in series [2] (from onset of reduction (ca. -1.0V), conversion value of 4.8) amounted to 3.8 eV.

For the molecule `CCC(CC)n1c(=O)c2ccc3c4c(-c5cc6c(=O)n(C(CC)CC)c(=O)c7cc8c9c(c5c5ccc%10c(=O)n(C(CC)CC)c(=O)c%11cc(c9c5c%10%11)n8C(=O)OC(C)(C)C)c67)cc5c(=O)n(C(CC)CC)c(=O)c6cc7c(c4c56)c4c3c2c(cc4n7C(=O)OC(C)(C)C)c1=O` [Compound 4, tPDI2N—BOC], in series [1] (DSC first heating trial, under N2 at 10° C. per min), the “onset of endothermic peak (cleavage of the protecting group begins)” value is 160 °C. Also, in series [1] (TGA and DSC), the “loss of the BOC group” value was about 170 °C.

As to `CCCCCCn1c2cc3c(=O)n(C(CC)CC)c(=O)c4ccc5c6c(-c7cc8c(=O)n(C(CC)CC)c(=O)c9cc%10c%11c(c7c7ccc%12c(=O)n(C(CC)CC)c(=O)c%13cc(c%11c7c%12%13)n%10CCCCCC)c89)cc7c(=O)n(C(CC)CC)c(=O)c8cc1c(c6c78)c2c5c43` [Compound 5, tPDI2N-Hex], the solubility in series [3] is over 50000 µg/mL.
